This passage reports IC50 results from US9932350B2, “Inhibitors of IRAK4 activity” (MERCK SHARP & DOHME CORP., priority 2014, dated 2018).

Sequence of GST tagged IRAK4 (Q9NWZ3 whole entry): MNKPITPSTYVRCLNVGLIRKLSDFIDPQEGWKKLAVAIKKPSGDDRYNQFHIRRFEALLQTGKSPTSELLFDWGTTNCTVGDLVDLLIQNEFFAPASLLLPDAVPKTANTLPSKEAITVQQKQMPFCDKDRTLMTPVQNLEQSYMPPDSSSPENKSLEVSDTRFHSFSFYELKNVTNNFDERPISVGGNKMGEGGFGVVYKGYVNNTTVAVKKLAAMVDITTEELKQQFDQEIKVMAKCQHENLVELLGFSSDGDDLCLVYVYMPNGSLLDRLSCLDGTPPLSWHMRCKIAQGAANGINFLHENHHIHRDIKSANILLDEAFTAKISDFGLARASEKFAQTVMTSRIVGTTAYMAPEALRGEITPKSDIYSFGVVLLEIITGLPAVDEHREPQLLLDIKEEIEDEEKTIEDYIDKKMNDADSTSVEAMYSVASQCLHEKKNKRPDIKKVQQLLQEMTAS

In the assay the target is GST tagged IRAK4 (Homo sapiens (Human), UniProt Q9NWZ3). The experiment in a line: IRAK4 Kinase Assay (IMAP fluorescence polarization). It counts as biochemical. The conditions noted are these: 0.5 nM GST tagged IRAK4, 100 μM ATP, 30 minutes at 25° C. As for the experimental part:
The kinase activity of IRAK4 is determined by its ability to catalyze the phosphorylation of a fluorescent polypeptide substrate. The extent of phosphorylation is measured using the IMAP technology (Molecular Devices) where the phosphorylated fluorescent substrate binds to the large M(III)-based nanoparticles which reduces the rotational speed of the substrate and thus increases its fluorescent polarization (FP).
20 μL reaction mixture contains 10 mM TriHCl, pH 7.2, 0.5 nM GST tagged IRAK4 (SignalChem), 100 nM fluorescent peptide substrate (RP7030, Molecular Devices), 100 μM ATP, 1 mM DDT, 1 mM MgCl2, and 0.01% Tween 20. The reaction is initiated by the addition of ATP. After incubation for 30 minutes at 25° C., 60 μL of Progressive IMAP Reagent (Molecular Devices) is added to stop the reaction. Change in RP7030's FP is determined by a FP reader (Analyst HT, LJL BioSystems).
(In general: Polarisation of emitted light reports the rotation of a fluorescent probe.)
A word on the IC50: it is the midpoint of a concentration-inhibition curve. A lower IC50 goes with greater potency. In the case of `N#Cc1ccc2ncnc(N[C@H]3CC[C@H](N4CCOC5CCCC54)CC3)c2c1` (stereo partly drawn) [Example 3-24, 4-({trans-4-[(4aS,7aS or 4aR,7aR)-hexahydrocyclopenta[b] [1,4]oxazin-4(4aH)-yl]cyclohexyl}amino) quinazoline-6-carbonitrile], the IC50 is 11 nM.

Regarding `N#Cc1ccc2ncnc(N[C@H]3CC[C@H](N4CCCC5COCCC54)CC3)c2c1` (stereo partly drawn) [Example 3-25, 4-{[trans-4-(hexahydro-2H-pyrano[4,3-b]pyridin-1(5H)-yl)cyclohexyl]amino} quinazoline-6-carbonitrile], the half-inhibitory concentration (IC50) was found to be 53 nM. This IC50 lies about 4.8-fold higher than the previous one.

As for `N#Cc1ccc2ncnc(N[C@H]3CC[C@H](N4CCOC5(CC5)C4)CC3)c2c1` [Example 3-26, 4-{[trans-4-(4-oxa-7-azaspiro[2.5]oct-7-yl)cyclohexyl]amino} quinazoline-6-carbonitrile], the concentration for half-maximal inhibition (IC50) worked out at 46 nM.

`N#Cc1ccc2ncnc(N[C@H]3CC[C@H](N4CCOC(CF)C4)CC3)c2c1` (stereo partly drawn) [Example 3-27, 4-({trans-4-[2-(fluoromethyl)morpholin-4-yl]cyclohexyl}amino) quinazoline-6-carbonitrile]: 8 nM corresponded to half-maximal inhibition (IC50).

Regarding `C[C@H]1COCCN1[C@H]1CC[C@H](Nc2ncnc3ccc(C#N)cc23)CC1` [Example 3-28, 4-({trans-4-[(3S)-3-methylmorpholin-4-yl]cyclohexyl}amino) quinazolin-6-carbonitrile], half-maximal inhibition (IC50) was put at 47 nM.

For `COC1CN([C@H]2CC[C@H](Nc3ncnc4ccc(C#N)cc34)CC2)C1` [Example 3-29, 4-{[trans-4-(3-methoxyazetidin-1-yl)cyclohexyl]amino} quinazoline-6-carbonitrile], the IC50 came to 11 nM.

`CN1CCN([C@H]2CC[C@H](Nc3ncnc4ccc(C#N)cc34)CC2)CC1` [Example 3-30, 4-{[trans-4-(4-methylpiperazin-1-yl)cyclohexyl]amino} quinazoline-6-carbonitrile] gave an IC50 of 17 nM.

In the case of `C[C@@H]1COCCN1[C@H]1CC[C@H](Nc2ncnc3ccc(C#N)cc23)CC1` [Example 3-31, 4-({trans-4-[(3R)-3-methylmorpholin-4-yl]cyclohexyl}amino) quinazoline-6-carbonitrile], the midpoint of inhibition, the IC50, lay at 10 nM.

As for `CN(C1CC1)[C@H]1CC[C@H](Nc2ncnc3ccc(C#N)cc23)CC1` [Example 3-32, 4-({trans-4-[cyclopropyl(methyl)amino]cyclohexyl}amino) quinazoline-6-carbonitrile], the IC50 was determined as 15 nM.

For the compound `N#Cc1ccc2ncnc(N[C@H]3CC[C@H](N4CCCC(F)(F)C4)CC3)c2c1` [Example 3-33, 4-{[trans-4-(3,3-difluoropiperidin-1-yl)cyclohexyl]amino} quinazoline-6-carbonitrile], half-maximal inhibition (IC50) required 132 nM.

The compound `N#Cc1ccc2ncnc(N[C@H]3CC[C@H](N4CC[C@H](O)C4)CC3)c2c1` [Example 3-34, 4-({trans-4-[(3S)-3-hydroxypyrrolidin-1-yl]cyclohexyl}amino) quinazoline-6-carbonitrile] displayed an IC50 of 33 nM.

`N#Cc1ccc2ncnc(N[C@H]3CC[C@H](N4CCCC(F)C4)CC3)c2c1` (stereo partly drawn) [Example 3-35, 4-{[trans-4-(3-fluoropiperidin-1-yl)cyclohexyl]amino} quinazoline-6-carbonitrile]: it took 38 nM to reach half-maximal inhibition (IC50). The IC50 values of the last two compounds are within 1.5-fold of each other.

For the compound `CC1(O)CCN([C@H]2CC[C@H](Nc3ncnc4ccc(C#N)cc34)CC2)C1` (stereo partly drawn) [Example 3-36, 4-{[trans-4-(3-hydroxy-3-methylpyrrolidin-1-yl)cyclohexyl]amino} quinazoline-6-carbonitrile], the IC50 was 25 nM.

Regarding `N#Cc1ccc2ncnc(N[C@H]3CC[C@H](N4CC(N5CCOCC5)C4)CC3)c2c1` [Example 3-37, 4-({trans-4-[3-(morpholin-4-yl)azetidin-1-yl]cyclohexyl}amino) quinazoline-6-carbonitrile], the concentration for half-maximal inhibition (IC50) was found to be 41 nM.

For the compound `N#Cc1ccc2ncnc(N[C@H]3CC[C@H](N4CC[C@@H](O)C4)CC3)c2c1` [Example 3-38, 4-({trans-4-[(3R)-3-hydroxypyrrolidin-1-yl]cyclohexyl}amino) quinazoline-6-carbonitrile], half-maximal inhibition (IC50) was put at 15 nM.

`N#Cc1ccc2ncnc(N[C@H]3CC[C@H](N4CCC5OCCC54)CC3)c2c1` (stereo partly drawn) [Example 3-39, 4-{[trans-4-(hexahydro-4H-furo[3,2-b]pyrrol-4-yl)cyclohexyl]amino} quinazoline-6-carbonitrile] came in with an IC50 of 174 nM.

For `CO[C@@H]1CCN([C@H]2CC[C@H](Nc3ncnc4ccc(C#N)cc34)CC2)C1` [Example 3-40, 4-({trans-4-[(3R)-3-methoxypyrrolidin-1-yl]cyclohexyl}amino) quinazoline-6-carbonitrile], half-maximal inhibition (IC50) required 51 nM.

Turning to `N#Cc1ccc2ncnc(N[C@H]3CC[C@H](N4CCC(CN5CCOCC5)CC4)CC3)c2c1` [Example 3-43, 4-({trans-4-[4-(mopholin-4-ylmethyl)piperidin-1-yl]cyclohexyl}amino) quinazoline-6-carbonitrile], the IC50 was determined as 9 nM.

The compound `N#Cc1ccc2ncnc(N[C@H]3CC[C@H](N4CCCC4)CC3)c2c1` [Example 3-44, 4-{[trans-4-(pyrrolidin-1-yl)cyclohexyl]amino} quinazoline-6-carbonitrile] came in with a half-inhibitory concentration (IC50) of 15 nM.

`CC(C)(C)OC(=O)N1CCN([C@H]2CC[C@H](Nc3ncnc4ccc(C#N)cc34)CC2)CC1` [Example 3-45, tert-butyl 4-{trans-4-[(6-cyanoquinazolin-4-yl)amino]cyclohexyl} piperazine-1-carboxylate] had an IC50 of 6 nM.

For the compound `N#Cc1ccc2ncnc(N[C@H]3CC[C@H](N4CCCC(CN5CCOCC5)C4)CC3)c2c1` (stereo partly drawn) [Example 3-46, 4-({trans-4-[3-(morpholin-4-ylmethyl)piperidin-1-yl]cyclohexyl}amino) quinazoline-6-carbonitrile], it took 7 nM to reach half-maximal inhibition (IC50).

Regarding `N#Cc1ccc2ncnc(N[C@H]3CC[C@H](N4C5CCC4COC5)CC3)c2c1` [Example 3-47, 4-{[trans-4-(3-oxa-8-azabicyclo[3.2.1]oct-8-yl)cyclohexyl]amino} quinazoline-6-carbonitrile], the half-inhibitory concentration (IC50) came to 872 nM.

Consider `N#Cc1ccc2ncnc(N[C@H]3CC[C@H](N4C[C@H]5CC[C@@H](C4)O5)CC3)c2c1` [Example 3-50, 4-({trans-4-[(1R,5S)-8-oxa-3-azabicylco[3.2.1]oct-3-yl]cyclohexyl}amino) quinazoline-6-carbonitrile], for which inhibition was half-maximal at 579 nM (IC50).

In turn, `CC1(C)CN([C@H]2CC[C@H](Nc3ncnc4ccc(C#N)cc34)CC2)CCO1` [Example 3-51, 4-{[trans-4-(2,2-dimethylmorpholin-4-yl)cyclohexyl]amino} quinazoline-6-carbonitrile] yielded a 50% inhibitory concentration (IC50) of 89 nM.

Take `CC(C)[C@@H]1COCCN1[C@H]1CC[C@H](Nc2ncnc3ccc(C#N)cc23)CC1` [Example 3-52, 4-({trans-4-[(3R)-3-(propan-2-yl)morpholin-4-yl]cyclohexyl}amino) quinazoline-6-carbonitrile]: the half-inhibitory concentration (IC50) was 26 nM.

As for `N#Cc1ccc2ncnc(N[C@H]3CC[C@H](N4CCCC(F)(F)CC4)CC3)c2c1` [Example 3-53, 4-{[trans-4-(4,4-difluoroazepan-1-yl)cyclohexyl]amino} quinazoline-6-carbonitrile], half-maximal inhibition (IC50) required 12 nM.

Regarding `N#Cc1ccc2ncnc(N[C@H]3CC[C@H](N4CCC(F)(F)CC4)CC3)c2c1` [Example 3-54, 4-{[trans-4-(4,4-difluoropiperidin-1-yl)cyclohexyl]amino} quinazoline-6-carbonitrile], the IC50 was 3 nM.

In turn, `N#Cc1ccc2ncnc(N[C@H]3CC[C@H](N4CCC(O)C4)CC3)c2c1` (stereo partly drawn) [Example 3-55, 4-{[trans-4-(3-hydroxypyrrolidin-1-yl)cyclohexyl]amino} quinazoline-6-carbonitrile] came in with a 50% inhibitory concentration (IC50) of 15 nM.

`CN(C)[C@H]1CC[C@H](Nc2ncnc3ccc(OCCCC(N)=O)cc23)CC1` [Example 4-1, 4-[(4-{[Trans-4-(dimethylamino)cyclohexyl]amino}quinazolin-6-yl)oxy]butanamide] showed a concentration for half-maximal inhibition (IC50) of 525 nM.

With `N#Cc1cc2c(N[C@H]3CC[C@H](N4CCOCC4)CC3)ncnc2cc1F` [Example 5-1, 7-Fluoro-4-{[trans-4-(morpholin-4-yl)cyclohexyl]amino}quinazoline-6-carbonitrile], the IC50 is 27 nM. This IC50 lies about 19-fold lower than the previous one.

`Cc1c(C#N)ccc2ncnc(N[C@H]3CC[C@H](N4CCOCC4)CC3)c12` [Example 5-2, 5-methyl-4-{[trans-4-(morpholin-4-yl)cyclohexyl]amino} quinazoline-6-carbonitrile]: the concentration for half-maximal inhibition (IC50) turned out to be 52 nM.

The compound `N#Cc1ccc2ncnc(N[C@H]3CC[C@H](N4CCN(C(=O)C5CC5)CC4)CC3)c2c1` [Example 6-1, 4-({Trans-4-[4-(cyclopropylcarbonyl)piperazin-1-yl]cyclohexyl}amino)quinazoline-6-carbonitrile] returned an IC50 of 3 nM.

Compound `CC(=O)N1CCN([C@H]2CC[C@H](Nc3ncnc4ccc(C#N)cc34)CC2)CC1` [Example 6-2, 4-{[trans-4-(4-acetylpiperazin-1-yl)cyclohexyl]amino} quinazoline-6-carbonitrile] showed a half-inhibitory concentration (IC50) of 11 nM.

Compound `CC(C)(C)C(=O)N1CCN([C@H]2CC[C@H](Nc3ncnc4ccc(C#N)cc34)CC2)CC1` [Example 6-3, 4-({trans-4-[4-(2,2-dimethylpropanoyl)piperazin-1-yl]cyclohexyl}amino) quinazoline-6-carbonitrile] came in with an IC50 of 8 nM.
